Assay results as given in patent publication US6737383B1, “Herbicidal oxadiazolidines” (priority 1999, dated 2004).

Key:
purple nutsedge = assay: Test B pre/postemergence purple nutsedge; assay type: in vivo, Cyperus rotundus
Description: (§1) Seeds of bedstraw (Galium aparine), blackgrass (Alopecurus myosuroides), surinam grass (Brachiaria decumbens), cocklebur (Xanthium strumarium), corn (Zea mays), crabgrass (Digitaria sanguinalis), giant foxtail (Setaria faberii), morningglory (Ipomoea hederacea), pigweed (Amaranthus retroflexus), rape (Brassica napus), soybean (Glycine max), sugar beet (Beta vulgaris), velvetleaf (Abutilon theophrasti), wheat (Triticum aestivum), wild oat (Avena fatua) and purple nutsedge (Cyperus rotundus) tubers were planted and treated preemnergence with test chemicals formulated in a non-phytotoxic solvent mixture which included a surfactant.
(§2) At the same time, these crop and weed species were also treated with postemergence applications of test chemicals formulated in the same manner. Plants ranged in height from 2 to 18 cm (1- to 4-leaf stage) for postemergence treatments. Plant species in the flood test consisted of rice (Oryza sativa), smallflower flatsedge (Cyperus difformis), duck salad (Heteranthera limosa) and bamyardgrass (Echinochloa crus-galli) grown to the 2-leaf stage for testing. Treated plants and controls were maintained in a greenhouse for twelve to sixteen days, after which all species were compared to controls and visually evaluated. Plant response ratings, summarized in Table B, are based on a scale of 0 to 10 where 0 is no effect and 10 is complete control. A dash (−) response means no test result.

crabgrass = assay: Test B pre/postemergence crabgrass; assay type: in vivo, Digitaria sanguinalis
Description: as §1, §2

soybean = assay: Test B pre/postemergence soybean; assay type: in vivo, Glycine max
Description: as §1, §2

giant foxtail = assay: Test B pre/postemergence giant foxtail; assay type: in vivo, Setaria faberii
Description: as §1, §2

bedstraw = assay: Test B pre/postemergence bedstraw; assay type: in vivo, Galium aparine
Description: as §1, §2

surinam grass = assay: Test B pre/postemergence surinam grass; assay type: in vivo, Brachiaria decumbens
Description: as §1, §2

cocklebur = assay: Test B pre/postemergence cocklebur; assay type: in vivo, Xanthium strumarium
Description: as §1, §2

sugar beet = assay: Test B pre/postemergence sugar beet; assay type: in vivo, Beta vulgaris
Description: as §1, §2

velvetleaf = assay: Test B pre/postemergence velvetleaf; assay type: in vivo, Abutilon theophrasti
Description: as §1, §2

corn = assay: Test B pre/postemergence corn; assay type: in vivo, Zea mays
Description: as §1, §2

wheat = assay: Test B pre/postemergence wheat; assay type: in vivo, Triticum aestivum
Description: as §1, §2

morningglory = assay: Test B pre/postemergence morningglory; assay type: in vivo, Ipomoea hederacea
Description: as §1, §2

wild oat = assay: Test B pre/postemergence wild oat; assay type: in vivo, Avena fatua
Description: as §1, §2

pigweed = assay: Test B pre/postemergence pigweed; assay type: in vivo, Amaranthus retroflexus
Description: as §1, §2

blackgrass = assay: Test B pre/postemergence blackgrass; assay type: in vivo, Alopecurus myosuroides
Description: as §1, §2

rape = assay: Test B pre/postemergence rape; assay type: in vivo, Brassica napus
Description: as §1, §2

[1] = Postemergence, Rate 62 g/ha, scale of 0 to 10, 0 is no effect, 10 is complete control
[2] = Preemergence, Rate 62 g/ha, scale of 0 to 10 where 0 is no effect and 10 is complete control
[3] = Preemergence, Rate 125 g/ha, scale 0 to 10, 0 is no effect, 10 is complete control
[4] = Preemergence, Rate 500 g/ha, scale of 0 to 10 where 0 is no effect and 10 is complete control
[5] = Rate 250 g/ha, Postemergence, scale of 0 to 10 where 0 is no effect and 10 is complete control
[6] = Postemergence, Rate 125 g/ha, scale 0 to 10, 0 is no effect, 10 is complete control
[7] = Postemergence, Rate 500 g/ha, scale 0 to 10, 0 is no effect, 10 is complete control
[8] = Preemergence, Rate 250 g/ha, scale 0 to 10 (0 no effect, 10 complete control)

## CCCCn1c(=O)on(C(=O)N(c2ccc(Cl)cc2)C(C)C)c1=O [Compound 527]
Purple nutsedge; [1]
  Nutsedge plant response rating: 0
Purple nutsedge; [2]
  Plant response rating, Nutsedge: 0
Purple nutsedge; [3]
  Nutsedge plant response rating: 0
Purple nutsedge; Preemergence, Rate 250 g/ha
  Nutsedge plant response rating (0 to 10 scale): 0
Purple nutsedge; [4]
  Nutsedge plant response rating: 0
Purple nutsedge; [5]
  Plant response rating, Nutsedge: 0
crabgrass; [1]
  Crabgrass plant response rating: 4
crabgrass; [6]
  Crabgrass plant response rating: 4
crabgrass; [7]
  Plant response rating, Crabgrass: 10
crabgrass; [2]
  Plant response rating, Crabgrass: 9
crabgrass; [3]
  Crabgrass plant response rating: 10
crabgrass; Preemergence, Rate 250 g/ha
  Crabgrass plant response rating (0 to 10 scale): 10
crabgrass; [4]
  Crabgrass plant response rating: 10
crabgrass; [5]
  Plant response rating, Crabgrass: 9
soybean; [1]
  Soybean plant response rating: 3
soybean; [6]
  Soybean plant response rating: 4
soybean; [7]
  Plant response rating, Soybean: 5
soybean; [2]
  Plant response rating, Soybean: 0
soybean; [3]
  Soybean plant response rating: 0
soybean; Preemergence, Rate 250 g/ha
  Soybean plant response rating (0 to 10 scale): 0
soybean; [4]
  Soybean plant response rating: 0
soybean; [5]
  Plant response rating, Soybean: 4
Giant foxtail; [1]
  Giant foxtail plant response rating: 5
Giant foxtail; [6]
  Giant foxtail plant response rating: 8
Giant foxtail; [7]
  Plant response rating, Giant foxtail: 9
Giant foxtail; [2]
  Plant response rating, Giant foxtail: 9
Giant foxtail; [3]
  Giant foxtail plant response rating: 10
Giant foxtail; Preemergence, Rate 250 g/ha
  Giant foxtail plant response rating (0 to 10 scale): 10
Giant foxtail; [4]
  Giant foxtail plant response rating: 10
Giant foxtail; [5]
  Plant response rating, Giant foxtail: 8
bedstraw; [1]
  Bedstraw plant response rating: 0
bedstraw; [2]
  Plant response rating, Bedstraw: 0
Surinam grass; [1]
  B. signalgrass plant response rating: 0
Surinam grass; [6]
  B. signalgrass plant response rating: 0
Surinam grass; [7]
  Plant response rating, B. signalgrass: 9
Surinam grass; [2]
  Plant response rating, B. signalgrass: 2
Surinam grass; [3]
  B. signalgrass plant response rating: 2
Surinam grass; Preemergence, Rate 250 g/ha
  B. signalgrass plant response rating (0 to 10 scale, 0 is no effect, 10 is complete control): 4
Surinam grass; [5]
  Plant response rating, B. signalgrass: 0
cocklebur; [1]
  Cocklebur plant response rating: 0
cocklebur; [6]
  Cocklebur plant response rating: 0
cocklebur; [7]
  Plant response rating, Cocklebur: 2
cocklebur; [2]
  Plant response rating, Cocklebur: 0
cocklebur; [3]
  Cocklebur plant response rating: 0
cocklebur; Preemergence, Rate 250 g/ha
  Cocklebur plant response rating (0 to 10 scale): 0
cocklebur; [4]
  Cocklebur plant response rating: 3
cocklebur; [5]
  Plant response rating, Cocklebur: 2
Sugar beet; [1]
  Sugarbeets plant response rating: 0
Sugar beet; [6]
  Sugarbeets plant response rating: 0
Sugar beet; [7]
  Plant response rating, Sugarbeets: 2
Sugar beet; [2]
  Plant response rating, Sugarbeets: 0
Sugar beet; [3]
  Sugarbeets plant response rating: 6
Sugar beet; Preemergence, Rate 250 g/ha
  Sugarbeets plant response rating (0 to 10 scale): 6
Sugar beet; [4]
  Sugarbeets plant response rating: 6
Sugar beet; [5]
  Plant response rating, Sugarbeets: 0
velvetleaf; [1]
  Velvetleaf plant response rating: 3
velvetleaf; [6]
  Velvetleaf plant response rating: 2
velvetleaf; [7]
  Plant response rating, Velvetleaf: 3
velvetleaf; [2]
  Plant response rating, Velvetleaf: 0
velvetleaf; [3]
  Velvetleaf plant response rating: 2
velvetleaf; Preemergence, Rate 250 g/ha
  Velvetleaf plant response rating (0 to 10 scale): 2
velvetleaf; [4]
  Velvetleaf plant response rating: 2
velvetleaf; [5]
  Plant response rating, Velvetleaf: 3
corn; [1]
  Corn plant response rating: 0
corn; [6]
  Corn plant response rating: 0
corn; [7]
  Plant response rating, Corn: 0
corn; [2]
  Plant response rating, Corn: 0
corn; [3]
  Corn plant response rating: 0
corn; Preemergence, Rate 250 g/ha
  Corn plant response rating (0 to 10 scale): 0
corn; [4]
  Corn plant response rating: 0
corn; [5]
  Plant response rating, Corn: 0
wheat; [1]
  Wheat plant response rating: 0
wheat; [6]
  Wheat plant response rating: 0
wheat; [7]
  Plant response rating, Wheat: 0
wheat; [2]
  Plant response rating, Wheat: 0
wheat; [3]
  Wheat plant response rating: 0
wheat; Preemergence, Rate 250 g/ha
  Wheat plant response rating (0 to 10 scale): 0
wheat; [5]
  Plant response rating, Wheat: 0
morningglory; [1]
  Morningglory plant response rating: 3
morningglory; [6]
  Morningglory plant response rating: 3
morningglory; [7]
  Plant response rating, Morningglory: 6
morningglory; [2]
  Plant response rating, Morningglory: 0
morningglory; [3]
  Morningglory plant response rating: 0
morningglory; Preemergence, Rate 250 g/ha
  Morningglory plant response rating (0 to 10 scale): 0
morningglory; [4]
  Morningglory plant response rating: 2
morningglory; [5]
  Plant response rating, Morningglory: 5
Wild oat; [1]
  Wild oats plant response rating: 0
Wild oat; [6]
  Wild oats plant response rating: 0
Wild oat; [7]
  Plant response rating, Wild oats: 0
Wild oat; [2]
  Plant response rating, Wild oats: 0
Wild oat; [3]
  Wild oats plant response rating: 0
Wild oat; Preemergence, Rate 250 g/ha
  Wild oats plant response rating (0 to 10 scale): 3
Wild oat; [5]
  Plant response rating, Wild oats: 0
pigweed; [1]
  Redroot pigweed plant response rating: 0
pigweed; [6]
  Redroot pigweed plant response rating: 0
pigweed; [7]
  Plant response rating, Redroot pigweed: 0
pigweed; [2]
  Plant response rating, Redroot pigweed: 0
pigweed; [3]
  Redroot pigweed plant response rating: 4
pigweed; Preemergence, Rate 250 g/ha
  Redroot pigweed plant response rating (0 to 10 scale): 4
pigweed; [4]
  Redroot pigweed plant response rating: 4
pigweed; [5]
  Plant response rating, Redroot pigweed: 0
blackgrass; [1]
  Blackgrass plant response rating: 0
blackgrass; [6]
  Blackgrass plant response rating: 3
blackgrass; [7]
  Plant response rating, Blackgrass: 7
blackgrass; [2]
  Plant response rating, Blackgrass: 0
blackgrass; [3]
  Blackgrass plant response rating: 2
blackgrass; Preemergence, Rate 250 g/ha
  Blackgrass plant response rating (0 to 10 scale): 2
blackgrass; [5]
  Plant response rating, Blackgrass: 4
rape; [1]
  Rape plant response rating: 0
rape; [6]
  Rape plant response rating: 0
rape; [7]
  Plant response rating, Rape: 2
rape; [2]
  Plant response rating, Rape: 0
rape; [3]
  Rape plant response rating: 2
rape; Preemergence, Rate 250 g/ha
  Rape plant response rating (0 to 10 scale): 2
rape; [5]
  Plant response rating, Rape: 0

## CC(C)N(C(=O)n1oc(=O)n(C(C)C2CC2)c1=O)c1ccc(Cl)cc1 (centres unmarked) [Compound 700]
crabgrass; [2]
  Crabgrass plant response rating: 10
crabgrass; [8]
  Plant response rating, Crabgrass: 10
soybean; [2]
  Soybean plant response rating: 0
Giant foxtail; [2]
  Giant foxtail plant response rating: 10
bedstraw; [2]
  Bedstraw plant response rating: 0
bedstraw; [8]
  Plant response rating, Bedstraw: 0
bedstraw; [4]
  Plant response rating, Bedstraw: 8
Surinam grass; [2]
  B. signalgrass plant response rating: 4
Surinam grass; [8]
  Plant response rating, B. signalgrass: 8
Surinam grass; [4]
  Plant response rating, B. signalgrass: 10
cocklebur; [2]
  Cocklebur plant response rating: 0
cocklebur; [8]
  Plant response rating, Cocklebur: 0
cocklebur; [4]
  Plant response rating, Cocklebur: 0
Sugar beet; [2]
  Sugarbeets plant response rating: 0
velvetleaf; [2]
  Velvetleaf plant response rating: 0
corn; [2]
  Corn plant response rating: 0
corn; [8]
  Plant response rating, Corn: 3
wheat; [2]
  Wheat plant response rating: 0
morningglory; [2]
  Morningglory plant response rating: 0
Wild oat; [2]
  Wild oats plant response rating: 4
pigweed; [2]
  Redroot pigweed plant response rating: 0
blackgrass; [2]
  Blackgrass plant response rating: 4
blackgrass; [8]
  Plant response rating, Blackgrass: 8
blackgrass; [4]
  Plant response rating, Blackgrass: 10
rape; [2]
  Rape plant response rating: 0
